This note sets out measurements from patent US6784201B2, “Benzothiepines having activity as inhibitors of ileal bile acid transport and taurocholate uptake” (G.D. Searle & Company, priority 1994, dated 2004).

Where two headings read alike, the source gives them in different places.

The target of one test is ACAT. Nature of the test: Acyl-CoA; cholesterol acyl transferase (ACAT), hamster liver microsomes. To be noted: read-out: ACAT (liver) IC(50). The test is classed as biochemical. Here is the method: Acyl-CoA; Cholesterol Acyl Transferase (ACAT)
Hamster liver and rat intestinal microsomes were prepared from tissue as described previously (Reference: (1980) J. Biol. Chem. 255, 9098) and used as a source of ACAT enzyme. The assay consisted of a 2.0 ml incubation containing 24 μM Oleoyl-CoA (0.05 μCi) in a 50 mM sodium phosphate, 2 mM DTT ph 7.4 buffer containing 0.25% BSA and 200 μg of microsomal protein. The assay was initiated by the addition of oleoyl-CoA. The reaction went for 5 min at 37° C. and was terminated by the addition of 8.0 ml of chloroform/methanol (2:1). […] The chloroform phase was taken to dryness and then spotted on a silica gel 60 TLC plate and developed in hexane/ethyl ether (9:1). The amount of cholesterol ester formed was determined by measuring the amount of radioactivity incorporated into the cholesterol oleate spot on the TLC plate with a Packard instaimager.

In a further test the test system is H14 cells. Kind of test: In vitro assay of uptake of [14C]-alanine. The test is classed as cell-based, hamster. The note with it: Mesocricetus auratus. In a few lines: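 H14 cells (BHK expressing human IBAT) incubated 2 h at 37 °C with compound and labelled alanine, in the same format as the 3 μM [14C]-taurocholate uptake assay, in DMEM with 0.2% fatty acid-free BSA. After cold PBS washes, cell-associated radioactivity measured by scintillation counting.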

In the next test the target is T1, human IBAT (Homo sapiens, UniProt Q12908).
T1 construct: expressed in transfected cells; host or cells: Baby hamster kidney (BHK) cells, clone H14
T1 sequence (Q12908 1-348): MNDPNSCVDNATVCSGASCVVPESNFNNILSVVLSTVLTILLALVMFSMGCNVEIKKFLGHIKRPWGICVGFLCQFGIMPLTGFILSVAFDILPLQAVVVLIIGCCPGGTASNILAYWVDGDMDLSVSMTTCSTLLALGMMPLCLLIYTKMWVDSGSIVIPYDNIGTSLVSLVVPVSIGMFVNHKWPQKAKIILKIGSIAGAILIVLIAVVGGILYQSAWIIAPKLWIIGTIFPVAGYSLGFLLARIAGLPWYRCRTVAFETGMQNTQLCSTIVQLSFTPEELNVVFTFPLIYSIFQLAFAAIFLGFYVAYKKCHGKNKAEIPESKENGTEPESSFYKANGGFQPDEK
Nature of the test: In vitro assay of IBAT-mediated uptake of [14C]-taurocholate (TC) in H14 cells. The test is classed as cell-based. An outline of the steps: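 BHK cells stably expressing human IBAT (H14) were incubated 2 h at 37° C with compound and 3 μM final [14C]-taurocholate in DMEM (4.5 g/L glucose) plus 0.2% fatty acid-free BSA. After cold PBS washes, cell-associated radioactivity was measured by scintillation counting.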

Test [1] relates to Rat Ileal Uptake of [14C]-Taurocholate. Kind of test: In vivo assay of rat ileal uptake of [14C]-taurocholate into bile (ileal loop). The note with it: for activity at 100 µM: Rattus norvegicus, read-out: % of Control Transport of TC in Rat Ileum @ 0.1 mM; for EC50: rat ileal loop, read-out: TC-uptake Ileal Loop EC(50). As for the experimental part: In Vivo Assay of Compounds that Inhibit Rat Ileal Uptake of [^14C]-Taurocholate into Bile
(See “Metabolism of 3α,7β-dihydroxy-7α-methyl-5β-cholanoic acid and 3α,7β-dihydroxy-7α-methyl-5β-cholanoic acid in hamsters” in Biochimica et Biophysica Acta 833 (1985) 196-202 by Une et al.)
Male wistar rats (200-300 g) are anesthetized with inactin @100 mg/kg. Bile ducts are cannulated with a 10″ length of PE10 tubing. The small intestine is exposed and laid out on a gauze pad. A canulae (⅛″ luer lock, tapered female adapter) is inserted at 12 cm from the junction of the small intestine and the cecum. A slit is cut at 4 cm from this same junction (utilizing a 8 cm length of ileum). 20 ml of warm Dulbecco's phosphate buffered saline, pH 6.5 (PBS) is used to flush out the intestine segment. The distal opening is cannulated with a 20 cm length of silicone tubing (0.02″ I.D.×0.037″ O.D.). The proximal cannulae is hooked up to a peristaltic pump and the intestine is washed for 20 min with warm PBS at 0.25 ml/min. Temperature of the gut segment is monitored continuously. At the start of the experiment, 2.0 ml of control sample ([^14C]-taurocholate @ 0.05 mi/ml with 5 mM cold taurocholate) is loaded into the gut segment with a 3 ml syringe and bile sample collection is begun. Control sample is infused at a rate of 0.25 ml/min for 21 min. Bile samples fractions are collected every 3 minute for the first 27 minutes of the procedure. After the 21 min of sample infusion, the ileal loop is washed out with 20 ml of warm PBS (using a 30 ml syringe), and then the loop is washed out for 21 min with warm PBS at 0.25 ml/min. A second perfusion is initiated as described above but this with test compound being administered as well (21 min administration followed by 21 min of wash out) and bile sampled every 3 min for the first 27 min. If necessary, a third perfusion is performed as above that typically contains the control sample.

For test [2], the system named is Rabbit Ileal brush border membranes. Kind of test: [3H]taurocholate uptake in rabbit brush border membrane vesicles (BBMV). The test is classed as biochemical. The note with it: read-out: TC-uptake (BBMV) IC(50). As for the experimental part: [^3H]Taurocholate Uptake in Rabbit Brush Border Membrane Vesicles (BBMV)
Rabbit Ileal brush border membranes were prepared from frozen iheal mucosa by the calcium precipitation method describe by Malathi et al. (Reference: (1979) Biochimica Biophysica Acta, 554, 259). The method for measuring taurocholate was essentially as described by Kramer et al. (Reference: (1992) Biochimica Biophysica Acta, 1111, 93) except the assay volume was 200 μl instead of 100 μl.

Setting [3] is: H14 cells, Table 5, read-out: IC50 uM (In vitro Taurocholate Cell Uptake).
The mark [4] stands for this setting: Table 6, read-out: TC-uptake (H14 cells) IC(50).

As for `CCCC[C@]1(CC)CS(=O)(=O)c2ccc(NO)cc2[C@@H](c2ccccc2)[C@H]1O` [Example 38, (3α,4β,5β) 3-Butyl-3-ethyl-4-hydroxy-7-hydroxyamino-5-phenyl-2,3,4,5-tetrahydrobenzothiepine-1,1-dioxide], the IC50 on ACAT turned out to be 15000 nM; at human IBAT (setting [3]) it was 0.3 µM; at human IBAT (setting [4]), 0.3 µM; in test [2], 2000 nM. In the test on H14 cells (5 μM), this compound came in with an inhibition at 5 µM of 11%. Also, in test [1], the activity at 100 µM amounted to 20.6%. For the same compound, in test [1], the EC50 stood at 12000 nM.
With `CCCC[C@]1(CC)CS(=O)(=O)c2ccc(OC)cc2[C@@H](c2ccccc2)[C@H]1O` [Example 49, (3α,4β,5β) 3-Butyl-3-ethyl-4-hydroxy-7-methoxy-5-phenyl-2,3,4,5-tetrahydrobenzothiepine-1,1-dioxide], the IC50 on ACAT is 6000 nM; at human IBAT (setting [3]), 0.15 µM; at human IBAT (setting [4]), 0.1 µM. In the test on H14 cells (200 μM), this compound came in with an inhibition at 200 µM of 21%. Further, in test [1], the activity at 100 µM came to 21.2%. In test [1], the EC50 was found to be 12000 nM.
